Measurements published in patent US20260137706A1, “METHODS OF TREATING INFLAMMATORY DISEASES” (INTERLINE THERAPEUTICS, INC., priority 2023, published 2026).

Experiments:
[1] = biological target: T1, GST-RIPK2 fusion protein (human RIPK2, amino acids 1-310) (Homo sapiens, UniProt O43353); assay: RIPK2 binding competition assay (TR-FRET, Tracer 199 displacement); details: 10 nM Tracer 199, 1 nM GST-RIPK2, read-out: RIPK2 IC50
T1 construct: made in house; host or cells: baculovirus infected Sf9 cells
T1 sequence (O43353 1-310): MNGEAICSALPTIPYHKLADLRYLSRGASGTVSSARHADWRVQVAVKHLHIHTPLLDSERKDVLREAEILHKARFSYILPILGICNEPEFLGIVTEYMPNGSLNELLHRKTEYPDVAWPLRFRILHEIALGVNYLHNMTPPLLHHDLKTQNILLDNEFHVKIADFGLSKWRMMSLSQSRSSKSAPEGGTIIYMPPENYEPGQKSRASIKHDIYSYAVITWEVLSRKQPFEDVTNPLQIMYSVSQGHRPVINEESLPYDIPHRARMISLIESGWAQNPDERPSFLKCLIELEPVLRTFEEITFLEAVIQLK
Method in brief: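 GST-RIPK2 (human aa 1-310, Sf9-expressed; final 1 nM) with Tracer 199 (final 10 nM) and Tb-anti-GST (final 0.5 nM) in Tris pH 7.5 buffer, 45 min at 22 °C. TR-FRET 665/620 nm ratio after 337 nm excitation; normalized to no-inhibitor (0%) and no-protein (−100%), giving IC50.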

[2] = biological target: T2, binding of His-XIAP(BIR2)-avi fusion protein to GST-RIPK2 fusion protein (RIPK2/XIAP) (Homo sapiens, UniProt O43353); assay: RIPK2-XIAP binding competition PPI assay (TR-FRET); details: RIPK2/XIAP binding competition PPI assay; for Emax: Amax, read-out: PPI Amax bin; for IC50: read-out: PPI IC50 bin
T2 construct: made in house; host or cells: baculovirus infected Sf9 cells
T2 sequence (O43353 1-310 limits assumed): as the sequence (O43353 1-310) above
Method in brief: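 Compounds (in DMSO, 100-fold stock) incubated 120 min at 23 °C with 1 nM GST-RIPK2 (aa 1-310) and 25 nM His-XIAP(BIR2 aa 152-231)-avi, plus anti-His-XL665 and anti-GST-Tb, in pH 7.5 Tris buffer. Read-out: 665/520 nm emission ratio. Normalized to no-inhibitor (0%) and 50 nM GSK583 (−100%); Amax binned A–D.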

[3] = test system: NF-κB pathway (SEAP) in THP1-Dual cells; assay: THP-1 Dual cell SEAP assay (L18-MDP stimulated); format: cell-based; details: Homo sapiens, THP1-Dual, read-out: NF-κB THP1 IC50 bin
Method in brief: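 THP1-Dual cells (~25,000/well) were preincubated 30 min with serially diluted compounds, then stimulated with 10 ng/mL L18-MDP (final) for 20-24 h at 37 °C. Supernatant SEAP was read with QUANTI-Blue at OD 620-655 nm after 2 h. IC50 came from non-linear fits of % inhibition versus DMSO/L18-MDP controls after media-blank subtraction.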

Row | Compound | IC50 [1] | Emax [2] | IC50 [2] | IC50 [3]
1 | C[C@@H](O)COc1cc2ncc(-c3cc(Cl)c(N)nc3F)n2cc1S(=O)(=O)C(C)(C)C [Example 212, (R)-1-((3-(6-amino-5-chloro-2-fluoropyridin-3-yl)-6-(tert-butylsulfonyl)imidazo [1,2-a]pyridin-7-yl)oxy)propan-2-ol] | 0.001 to 0.0025 µM | > 80% | 0.001 to 0.0025 µM | 0.05 to 0.25 µM
2 | COc1cc2ncc(-c3cc(F)c(N)nc3F)n2cc1C1CCCN(C)C1=O (centres unmarked) [Example 213, 3-(3-(6-amino-2,5-difluoropyridin-3-yl)-7-methoxyimidazo[1,2-a]pyridin-6-yl)-1-methylpiperidin-2-one] | > 0.02 µM | 55 to 80% | > 0.02 µM | > 1 µM
3 | COc1cc2ncc(-c3cc(F)c(OC)c(NS(=O)(=O)c4cnn(C)c4)c3)n2cc1S(C)(=O)=O [Example 214, N-(3-fluoro-2-methoxy-5-(7-methoxy-6-(methylsulfonyl)imidazo[1,2-a]pyridin-3-yl)phenyl)-1-methyl-1H-pyrazole-4-sulfonamide] | < 0.001 µM | > 80% | < 0.001 µM | 0.05 to 0.25 µM
4 | CC(C)(C)S(=O)(=O)c1cc2c(-c3cc4cc[nH]c4nc3F)cnn2cc1OCCO [Example 215, 2-((5-(tert-butylsulfonyl)-3-(6-fluoro-1H-pyrrolo[2,3-b]pyridin-5-yl)pyrazolo[1,5-a]pyridin-6-yl)oxy)ethan-1-ol] | < 0.001 µM | > 80% | < 0.001 µM | < 0.05 µM
5 | COc1cc2ncc(-c3cc4cc[nH]c4nc3F)n2cc1S(=O)(=O)C(C)(C)C [Example 216, 6-(tert-butylsulfonyl)-3-(6-fluoro-1H-pyrrolo[2,3-b]pyridin-5-yl)-7-methoxyimidazo[1,2-a]pyridine] | < 0.001 µM | > 80% | < 0.001 µM | < 0.05 µM
6 | CC(C)(C)S(=O)(=O)c1cn2c(-c3cc4cc[nH]c4cc3F)cnc2cc1OCCO [Example 217, 2-((6-(tert-butylsulfonyl)-3-(6-fluoro-1H-indol-5-yl)imidazo[1,2-a]pyridin-7-yl)oxy)ethan-1-ol] | < 0.001 µM | 55 to 80% | < 0.001 µM | 0.05 to 0.25 µM
7 | Cc1c[nH]c2ncc(-c3cnc4cc(OCCO)c(S(=O)(=O)C(C)(C)C)cn34)cc12 [Example 218, 2-((6-(tert-butylsulfonyl)-3-(3-methyl-1H-pyrrolo[2,3-b]pyridin-5-yl)imidazo[1,2-a]pyridin-7-yl)oxy)ethan-1-ol] | 0.0025 to 0.02 µM | 55 to 80% | 0.0025 to 0.02 µM | > 1 µM
8 | CC(C)(C)S(=O)(=O)c1cn2c(-c3cnc4[nH]cc(Cl)c4c3)cnc2cc1OCCO [Example 219, 2-((6-(tert-butylsulfonyl)-3-(3-chloro-1H-pyrrolo[2,3-b]pyridin-5-yl)imidazo[1,2-a]pyridin-7-yl)oxy)ethan-1-ol] | 0.001 to 0.0025 µM | > 80% | 0.001 to 0.0025 µM | 0.05 to 0.25 µM
9 | CC(C)(C)S(=O)(=O)c1cn2c(-c3cnc4[nH]cc(F)c4c3)cnc2cc1OCCO [Example 220, 2-((6-(tert-butylsulfonyl)-3-(3-fluoro-1H-pyrrolo[2,3-b]pyridin-5-yl)imidazo[1,2-a]pyridin-7-yl)oxy)ethan-1-ol] | < 0.001 µM | > 80% | < 0.001 µM | < 0.05 µM
10 | CC(C)(C)S(=O)(=O)c1cn2c(-c3cnc4ccnn4c3)cnc2cc1OCCO [Example 221, 2-((6-(tert-butylsulfonyl)-3-(pyrazolo[1,5-a]pyrimidin-6-yl)imidazo[1,2-a]pyridin-7-yl)oxy)ethan-1-ol] | > 0.02 µM | > 80% | > 0.02 µM | > 1 µM
11 | CC(C)(C)S(=O)(=O)c1cn2c(-c3cnc4[nH]ncc4c3)cnc2cc1OCCO [Example 222, 2-((6-(tert-butylsulfonyl)-3-(1H-pyrazolo[3,4-b]pyridin-5-yl)imidazo[1,2-a]pyridin-7-yl)oxy)ethan-1-ol] | 0.0025 to 0.02 µM | < 30% | > 0.02 µM | > 1 µM
12 | COc1c(F)cc(-c2cnc3cc(OCCO)c(S(=O)(=O)C(C)(C)C)cn23)cc1NS(C)(=O)=O [Example 223, N-(5-(6-(tert-butylsulfonyl)-7-(2-hydroxyethoxy)imidazo [1,2-a]pyridin-3-yl)-3-fluoro-2-methoxyphenyl) methanesulfonamide] | < 0.001 µM | 55 to 80% | < 0.001 µM | 0.05 to 0.25 µM
13 | CCS(=O)(=O)Nc1cc(-c2cnc3cc(OCCO)c(S(=O)(=O)C(C)(C)C)cn23)cc(F)c1OC [Example 224, N-(5-(6-(tert-butylsulfonyl)-7-(2-hydroxyethoxy)imidazo [1,2-a]pyridin-3-yl)-3-fluoro-2-methoxyphenyl) ethanesulfonamide] | < 0.001 µM | > 80% | < 0.001 µM | < 0.05 µM
14 | COc1c(F)cc(-c2cnc3cc(OCCO)c(S(=O)(=O)C(C)(C)C)cn23)cc1NS(=O)(=O)c1cnn(C)c1 [Example 225, N-(5-(6-(tert-butylsulfonyl)-7-(2-hydroxyethoxy)imidazo[1,2-a]pyridin-3-yl)-3-fluoro-2-methoxyphenyl)-1-methyl-1H-pyrazole-4-sulfonamide] | < 0.001 µM | > 80% | < 0.001 µM | < 0.05 µM
15 | COc1c(F)cc(-c2cnn3cc(OCCO)c(S(=O)(=O)C(C)(C)C)cc23)cc1NS(=O)(=O)c1cnn(C)c1 [Example 226, N-(5-(5-(tert-butylsulfonyl)-6-(2-hydroxyethoxy)pyrazolo [1,5-a]pyridin-3-yl)-3-fluoro-2-methoxyphenyl)-1-methyl-1H-pyrazole-4-sulfonamide] | < 0.001 µM | > 80% | < 0.001 µM | < 0.05 µM
16 | COc1cc2ncc(-c3cc(F)c(OC)c(NS(=O)(=O)c4cnn(CCO)c4)c3)n2cc1S(=O)(=O)C(C)(C)C [Example 227, N-(5-(6-(tert-butylsulfonyl)-7-methoxyimidazo[1,2-a]pyridin-3-yl)-3-fluoro-2-methoxyphenyl)-1-(2-hydroxyethyl)-1H-pyrazole-4-sulfonamide] | 0.001 to 0.0025 µM | > 80% | < 0.001 µM | < 0.05 µM
17 | C[C@H](CO)COc1cc2ncc(-c3cc4cc[nH]c4nc3F)n2cc1S(=O)(=O)C(C)(C)C [Example 228, (R)-3-((6-(tert-butylsulfonyl)-3-(6-fluoro-1H-pyrrolo[2,3-b]pyridin-5-yl)imidazo[1,2-a]pyridin-7-yl)oxy)-2-methylpropan-1-ol] | < 0.001 µM | > 80% | < 0.001 µM | < 0.05 µM
18 | CC(C)(C)S(=O)(=O)c1cn2c(-c3cnc4[nH]cnc4c3)cnc2cc1OCCO [Example 229, 2-((6-(tert-butylsulfonyl)-3-(3H-imidazo[4,5-b]pyridin-6-yl)imidazo[1,2-a]pyridin-7-yl)oxy)ethan-1-ol] | > 0.02 µM | < 30% | > 0.02 µM | > 1 µM
19 | CC1(C)CNc2ncc(-c3cnc4cc(OCCO)c(S(=O)(=O)C(C)(C)C)cn34)cc21 [Example 230, 2-((6-(tert-butylsulfonyl)-3-(3,3-dimethyl-2,3-dihydro-1H-pyrrolo[2,3-b]pyridin-5-yl)imidazo[1,2-a]pyridin-7-yl)oxy)ethan-1-ol] | > 0.02 µM | < 30% | > 0.02 µM | > 1 µM
20 | CC(C)(C)S(=O)(=O)c1cn2c(-c3cnc4[nH]nnc4c3)cnc2cc1OCCO [Example 231, 2-((3-(3H-[1,2,3]triazolo[4,5-b]pyridin-6-yl)-6-(tert-butylsulfonyl)imidazo [1,2-a]pyridin-7-yl)oxy)ethan-1-ol] | > 0.02 µM | 30 to 55% | > 0.02 µM | > 1 µM
21 | Cc1cc2cc(-c3cnc4cc(OCCO)c(S(=O)(=O)C(C)(C)C)cn34)cnc2[nH]1 [Example 232, 2-((6-(tert-butylsulfonyl)-3-(2-methyl-1H-pyrrolo[2,3-b]pyridin-5-yl)imidazo[1,2-a]pyridin-7-yl)oxy)ethan-1-ol] | 0.0025 to 0.02 µM | 30 to 55% | < 0.001 µM | > 1 µM
22 | CC(C)(C)S(=O)(=O)c1cn2c(-c3cnc4[nH]c(Cl)cc4c3)cnc2cc1OCCO [Example 233, 2-((6-(tert-butylsulfonyl)-3-(2-chloro-1H-pyrrolo[2,3-b]pyridin-5-yl)imidazo[1,2-a]pyridin-7-yl)oxy)ethan-1-ol] | 0.0025 to 0.02 µM | < 30% | > 0.02 µM | > 1 µM
23 | COc1cc2ncc(-c3cc(F)c(OC)c(NS(=O)(=O)c4cnn(C)c4)c3)n2cc1C1(F)CCN(C)CC1 [Example 234, N-(3-fluoro-5-(6-(4-fluoro-1-methylpiperidin-4-yl)-7-methoxyimidazo[1,2-a]pyridin-3-yl)-2-methoxyphenyl)-1-methyl-1H-pyrazole-4-sulfonamide] | < 0.001 µM | > 80% | < 0.001 µM | < 0.05 µM
